From US7803792B2, “Quaternary ammonium compounds” (Asahi Kasei Pharma Corporation, priority 2002, dated 2010)

How the values were obtained:
[1] = test system: bile duct partial ligation model; test: Cholestasis-caused hepatopathy model, bile duct partial ligation, IBAT inhibiting compounds, blood after 24 hours (Test Example 13); assay type: in vivo, rat; conditions: blood 24 hours after administration, N = 3, average ± standard error
Method: “Cholestasis-Caused Hepatopathy” Model (Bile Duct Partial Ligation Model)
In this test example, the model of cholestasis-caused hepatopathy was tested according to the method described in Test Example 5.
That is, the abdomens of 8 to 10 weeks old SD (IGS) male rats were cut open under anesthesia with pentobarbital and partial ligation surgery of the bile duct was carried out. After the surgery, 200 mg/kg of bile acid and an IBAT inhibiting compound were forcibly orally administered to the rats (each n=3). As a control group, physiological saline […] was administered (n=3). To observe the effect of the partial ligation surgery, a sham group (the abdomen was cut open under anesthesia with pentobarbital but partial ligation surgery of the bile duct was not carried out) and an untreated group were established (each n=3). After 24 hours from the administration a blood sample was taken from the abdominal aorta and AST, ALT, and ALP in the blood were measured using the method described in Test Example 5.

bile acid loaded model = test: Cholestasis-caused hepatopathy model, bile acid loaded model, 4.5 days (Test Example 14); assay type: in vivo, rat; conditions: administration period 4.5 days, N = 6, average ± standard error
Method: “Cholestasis-Caused Hepatopathy” Model (Bile Acid Loaded Model)
In this test example, the model of hepatopathy due to loading of bile acid was carried out similarly to the protocol B in Test Example 5. However, the administration period in this test example was changed to 4.5 days. […] Therefore, the compounds have proven to be useful as drugs for the treatment and prevention of cholestasis-caused hepatopathy, in particular as drugs for the treatment and prevention of primary biliary cirrhosis and primary sclerosing cholangitis. Moreover, the compounds of other examples of the present invention not shown in Tables 18 and 19 can be expected to have excellent ameliorating effects on cholestasis-caused hepatopathy.

human IBAT = target: T1, human IBAT (Homo sapiens, UniProt Q12908); test: In vitro assay of temporarily expressed human IBAT transporter using Cos 7 cells (Test Example 8); assay type: cell-based; conditions: Cos 7 cells temporarily expressing human IBAT; [3H] taurocholate 8 μM, 37° C., 60 minutes
T1 construct: expressed in transfected cells; host or cells: Cos 7
T1 sequence (Q12908 1-348): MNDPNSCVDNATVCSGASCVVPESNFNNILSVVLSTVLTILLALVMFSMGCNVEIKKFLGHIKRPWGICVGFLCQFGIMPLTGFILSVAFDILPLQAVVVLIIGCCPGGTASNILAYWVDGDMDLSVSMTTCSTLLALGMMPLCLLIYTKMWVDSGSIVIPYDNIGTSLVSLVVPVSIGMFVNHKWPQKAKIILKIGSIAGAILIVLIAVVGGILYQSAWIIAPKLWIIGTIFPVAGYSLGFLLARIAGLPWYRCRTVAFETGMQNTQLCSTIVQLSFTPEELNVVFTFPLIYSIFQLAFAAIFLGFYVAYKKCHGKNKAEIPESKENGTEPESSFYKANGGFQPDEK
Outline: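 Cos 7 cells transiently transfected with human or rat IBAT cDNA, assayed one day later in Hank's buffer with 25 mM glucose, 10 mM HEPES (pH 7.4) plus compound. Uptake of 8 μM [^3H]taurocholate over 60 min at 37 °C, stopped with 1 mM taurocholate washes; lysate radioactivity by scintillation counting.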

[2] = test system: Cholic acid-loaded rat model; test: Bile acid-decreasing effect in portal vein of rats loaded with cholic acid (Test Example 2); assay type: in vivo; conditions: 0.1 mg/kg oral with cholic acid 200 mg/kg, portal vein blood after 2 hours
Method: Bile Acid-Decreasing Effect in Portal Vein of Rats Loaded With Cholic Acid
In this test example, the test for confirming the bile acid-decreasing effect in portal vein of cholic acid-loaded rats was carried out according to the method described in Pharmacology and Therapeutics [Jpn Pharmacol. Ther., Vol. 24 Supplement, 1996, 103 (S-577)-110 (S-584)].
That is, 7 to 9 weeks old SD (IGS) rats were starved on the day before the test and thereafter. […] After 2 hours from the administration, a sample of blood was taken from a portal vein and total serum bile acid level was measured to study the effect of the test compound (n=6). Further, as a control group, a group (n=6) loaded with cholic acid (200 mg/kg) only was prepared and the same test procedure was followed. A commercially available kit (trade name: SOTANJUSAN-TEST WAKO-(SOTANJUSAN=total bile acid), manufactured by WAKO PURE CHEMICAL […], LTD.) was used for the measurement of bile acid. Assuming the value of the control group, which is a group in which no test compound was used, as 100%, the rate of decrease (percentage (%) of decrease) of the bile acid level when a fixed amount of the test compound was used was determined.

Caco 2 cells = test: Toxicity with respect to alimentary canal: cytotoxicity to Caco 2, LDH activity (Test Example 12); assay type: cell-based, human; conditions: LDH activity after 2 hours, relative to cytolytic agent = 100%
Method: Toxicity With Respect to Alimentary Canal
To evaluate the toxicity of the compounds of the present invention to the alimentary canal, the cytotoxicity to Caco 2, which is a human originated small intestine epithelial cell line, was tested by referring to the method of Bestwick C S et al. [Biochimica et Biophysica Acta 1474: 47-55, 1999].
That is, Caco 2 cells (purchased from ATCC) were inoculated on a 96-well plate such that there were 10,000 cells/well [MEM-E medium, 10% FBS (Fetal Bovine Serum), 1% NEAA (Non Essential Amino Acid) solution, (both manufactured by GIBCO PHARMACEUTICAL COMPANY)]. After culturing for 48 hours, the test compounds were diluted with the culture medium and added to the respective wells. After 2 hours, 50 μl of the culture broth was collected and the LDH activity in the collected culture broth was measured by using an LDH activity measuring kit (CytoTox 96 Non-Radioactive Cytotoxicity Assay, manufactured by PROMEGA CORPORATION). Relative activities were calculated assuming the LDH activity as 100% when the Caco 2 cells were treated with the cytolytic agent and the obtained relative activities were taken as cytotoxicities to Caco 2 cell.

rat IBAT = target: T2, rat IBAT (Rattus norvegicus, UniProt Q62633); test: In vitro assay of temporarily expressed rat IBAT transporter using Cos 7 cells (Test Example 8); assay type: cell-based; conditions: Cos 7 cells temporarily expressing rat IBAT; [3H] taurocholate 8 μM, 37° C., 60 minutes
T2 construct: expressed in transfected cells; host or cells: Cos 7
T2 sequence (Q62633 1-348): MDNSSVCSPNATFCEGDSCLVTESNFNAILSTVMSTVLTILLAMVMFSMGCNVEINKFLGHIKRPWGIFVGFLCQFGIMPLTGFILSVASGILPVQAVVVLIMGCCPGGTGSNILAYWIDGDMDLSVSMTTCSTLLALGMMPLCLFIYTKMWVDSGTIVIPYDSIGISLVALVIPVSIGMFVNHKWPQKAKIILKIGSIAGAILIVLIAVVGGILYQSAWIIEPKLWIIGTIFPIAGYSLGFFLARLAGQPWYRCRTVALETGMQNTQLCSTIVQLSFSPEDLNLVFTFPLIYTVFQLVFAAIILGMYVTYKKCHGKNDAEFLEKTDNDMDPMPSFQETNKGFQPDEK
Method: In Vitro Assay of Compounds Which Inhibit Temporarily Expressed Human IBAT Transporter or Rat IBAT Transporter Using Cos 7 Cells
In this test example, the in vitro assay of the compounds which inhibit temporarily expressed human IBAT transporter or rat IBAT transporter using Cos cells was carried out according to the method described in Am. J. Physiol., 274, G157-169.
That is, […] Cos 7 were inoculated on a 24-well cell plate. One day later, 0.3 μg per well of cDNA of a human IBAT or a rat IBAT was transfected by using FuGENE6 (manufactured by ROCHE PHARMACEUTICAL CO., LTD.). For the assay, the cells cultured for one day after the transfection were used and the following procedure was followed. The cells were washed once with an assay buffer, Hank's buffer solution containing 25 mM glucose and with 10 mM HEPES (pH 7.4), and then the assay buffer was replaced by an assay buffer to which the test compound was added. After adding [^3H] taurocholate to a final concentration of 8 μM, the cells were incubated at 37° C. for 60 minutes. [^3H] taurocholate was allowed to be incorporated in Cos 7 cells through human IBAT or rat IBAT. The reaction was stopped by washing twice with a buffer prepared by adding 1 mM taurocholate to the assay buffer and lyzing the cells with 0.2M NaOH. Measurement of radioactivity was carried out by introducing the cell lyzate in 4 ml of liquid scintillation cocktail, stirring the mixture well, and then measuring the radioactivity by a scintillation counter.

`CCCC[C@@]1(CC)CS(=O)(=O)c2ccccc2[C@H](c2ccccc2)N1` (relative stereo) [Compound C, Trans-3-butyl-3-ethyl-2,3,4,5-tetrahydro-5-phenyl-1,4-benzothiazepine-1,1-dioxide] showed an ALP ([1]; Table 16, 10 mg/kg oral) of 948 ± 208 IU/L, an ALT ([1]; Table 16, 10 mg/kg oral) of 113 ± 44 IU/L and an AST ([1]; Table 16, 10 mg/kg oral) of 313 ± 82 IU/L. It also gave an ALT (bile acid loaded model; Table 18, 10 mg/kg) of 53 ± 6 IU/L and an AST (bile acid loaded model; Table 18, 10 mg/kg) of 100 ± 2 IU/L.

With `CCCCC1(CCCC)CS(=O)(=O)c2ccc(N(C)C)cc2C(c2cccc(NC(=S)CCCCC[N+]34CCC(c5ccccc5)(CC3)CC4)c2)N1` (stereo not drawn) [Example 3853] the IC50 (human IBAT) was 28 nM, the “Rate of decrease (%) of bile acid” value ([2]; HCO-60 0.1%) was 36% and the “Toxicity (%) to Caco 2” value (Caco 2 cells; 3 μM) was <1%. For the same compound, the “Toxicity (%) to Caco 2” value (Caco 2 cells; 10 μM) was <1%, the “Toxicity (%) to Caco 2” value (Caco 2 cells; 30 μM) was <1% and the IC50 (rat IBAT) was 9 nM.

In the case of `CCCC[C@@]1(CC)CS(=O)(=O)c2cc(OC)c(OC)cc2[C@H](c2ccccc2)N1` (relative stereo) [Compound B, Trans-3-butyl-3-ethyl-2,3,4,5-tetrahydro-7,8-dimethoxy-5-phenyl-1,4-benzothiazepine-1,1-dioxide], the ALP ([1]; Table 17, 1 mg/kg oral) is reported as 1335 ± 116 IU/L, the ALT ([1]; Table 17, 1 mg/kg oral) is reported as 138 ± 54 IU/L and the AST ([1]; Table 17, 1 mg/kg oral) is reported as 261 ± 63 IU/L. The ALT (bile acid loaded model; Table 19, 0.1 mg/kg) was 54 ± 6 IU/L and the AST (bile acid loaded model; Table 19, 0.1 mg/kg) was 110 ± 4 IU/L.

Compound `CCCCC1(CCCC)CS(=O)(=O)c2ccc(N(C)C)cc2C(c2cccc(NC(=S)NCCC[N+]34CCC(CC3)CC4)c2)N1` (stereo not drawn) [Example 9, 1-(3-{3-[3,3-Dibutyl-7-dimethylamino-1,1-dioxo-2,3,4,5-tetrahydro-1,4-benzothiazepin-5-yl)phenyl]thioureido}-propyl)-1-azoniabicyclo[2.2.2]octane bromide] has an IC50 (human IBAT) of 76 nM and an IC50 (rat IBAT) of 36 nM.

In the case of `CCCCC1(CCCC)CS(=O)(=O)c2ccc(N(C)C)cc2C(c2cccc(NC(=S)Nc3ccc(C[N+]45CCC(CC4)CC5)cc3)c2)N1.[Br-]` (stereo not drawn) [Example 3695], the IC50 (human IBAT) is reported as 37 nM, the “Rate of decrease (%) of bile acid” value ([2]; HCO-60 0.1%) is reported as 23% and the “Toxicity (%) to Caco 2” value (Caco 2 cells; 3 μM) is reported as <1%. The “Toxicity (%) to Caco 2” value (Caco 2 cells; 10 μM) was <1%, the “Toxicity (%) to Caco 2” value (Caco 2 cells; 30 μM) was <1% and the IC50 (rat IBAT) was 5 nM.

For `CCCCC1(CCCC)CS(=O)(=O)c2ccc(N(C)C)cc2C(c2cccc(NC(=S)CCCCCCC[N+]34CCC(CC3)CC4)c2)N1` (stereo not drawn) [Example 3932], the IC50 (human IBAT) was 36 nM, the “Rate of decrease (%) of bile acid” value ([2]; Tween 20 0.05%) was 30% and the IC50 (rat IBAT) was 9 nM.

For `CCCCC1(CCCC)CS(=O)(=O)c2ccc(N(C)C)cc2[C@H](c2cccc([N+](C)(C)C)c2)[C@@H]1O.[I-]` (relative stereo) [Compound D, Cis-[3-(3,3-dibutyl-7-dimethylamino-4-hydroxy-1,1-dioxo-2,3,4,5-tetrahydro-1-benzothiepin-5-yl)phenyl]trimethyl-ammonium iodide], the ALP ([1]; Table 16, 10 mg/kg oral) was 715 ± 24 IU/L, the ALT ([1]; Table 16, 10 mg/kg oral) was 73 ± 17 IU/L and the AST ([1]; Table 16, 10 mg/kg oral) was 275 ± 12 IU/L. For the same compound, the ALT (bile acid loaded model; Table 18, 10 mg/kg) was 46 ± 4 IU/L and the AST (bile acid loaded model; Table 18, 10 mg/kg) was 100 ± 9 IU/L.

In the case of `CCC(CC)CC(=O)c1c(C(=O)OC)c(-c2ccc(OC)c(OC)c2)c2c(OC)c(OC)c(OC)cc2c1O` [Compound E, Methyl 1-(3,4-dimethoxyphenyl)-3-(3-ethylvaleryl)-4-hydroxy-6,7,8-trimethoxy-2-naphthoate], the ALP ([1]; Table 17, 10 mg/kg oral) is reported as 1345 ± 145 IU/L, the ALT ([1]; Table 17, 10 mg/kg oral) is reported as 180 ± 68 IU/L and the AST ([1]; Table 17, 10 mg/kg oral) is reported as 280 ± 72 IU/L. It also gave an ALT (bile acid loaded model; Table 19, 10 mg/kg) of 46 ± 3 IU/L and an AST (bile acid loaded model; Table 19, 10 mg/kg) of 105 ± 11 IU/L.

In the case of `CCC(CC)CC(=O)c1c(C(=O)OC)c(-c2ccc(OC)c(OC)c2)c2c(OC)c(OC)c(OC)cc2c1OC1OC(C(=O)O)C(O)C(O)C1O` [Compound F, {1-O-[4-(3,4-dimethoxyphenyl)-2-(3-ethyl-pentanoyl)-5,6,7-trimethoxy-3-(methoxycarbonyl)naphthalen-1-yl]-β-D-glucopyranosido}uronic acid], the ALP ([1]; Table 17, 10 mg/kg oral) is reported as 1423 ± 115 IU/L, the ALT ([1]; Table 17, 10 mg/kg oral) is reported as 214 ± 53 IU/L and the AST ([1]; Table 17, 10 mg/kg oral) is reported as 320 ± 66 IU/L. It also gave an ALT (bile acid loaded model; Table 19, 10 mg/kg) of 58 ± 5 IU/L and an AST (bile acid loaded model; Table 19, 10 mg/kg) of 123 ± 16 IU/L.
